Measurements taken from PMC11415492 (Nature Communications, 2024).
Values joined by “and” are separate entries in the source; they are usually repeats but may differ in a detail not shown here. Equal values may be shown once. Where a name gives a salt, the structure may show the parent alone. Read-outs that look alike come from different tables or passages of the source.

Assay: Pharmacokinetic study in mice (plasma and brain), with estimated free drug concentrations
Type: in vivo, mouse
Conditions: for Brain Concentration (total) / Free Brain Concentration / Free Plasma Concentration / Plasma Concentration (total) / concentration at 0.083 h / concentration at 0.25 h / concentration at 0.5 h / concentration at 1 h / concentration at 2 h: mice, individual animals; for Brain Concentration (total) / Free Brain Concentration / Free Plasma Concentration / Plasma Concentration (total) / Total concentration / concentration at 0.083 h / concentration at 0.25 h / concentration at 0.5 h / concentration at 1 h / concentration at 2 h: 10 mg/kg s.c.; for Brain Concentration (total) / Free Brain Concentration / Free Plasma Concentration / Plasma Concentration (total) / concentration at 0.083 h / concentration at 0.25 h / concentration at 0.5 h / concentration at 1 h / concentration at 2 h / Cmax / AUC(0-inf) / AUC(0-t): 10 mg/kg; for Total concentration: Mice; for CLf / T1/2 / Cmax / AUC(0-inf) / AUC(0-t) / Tmax / half-life / Vd/F: male C57BL/6 mice; for concentration at 0.083 h / concentration at 0.25 h / concentration at 0.5 h / concentration at 1 h / concentration at 2 h / Cmax / AUC(0-inf) / AUC(0-t): male, C57BL/6, mouse; for concentration at 0.083 h / concentration at 0.25 h / concentration at 0.5 h / concentration at 1 h / concentration at 2 h / Cmax / AUC(0-inf) / AUC(0-t) / Tmax / half-life / Vd/F: sc; for Tmax / half-life / Vd/F: mouse; for half-life: read-out: T1/2z (converted); for Vd/F: read-out: VZ/F
[1] = brain, read-out: Brain Concentration (total)
[2] = brain, read-out: Free Brain Concentration
[3] = plasma, read-out: Free Plasma Concentration
[4] = plasma, read-out: Plasma Concentration (total)

In the case of `CCC1CC2CC3c4[nH]c5ccc(O)cc5c4CCN(C2)C13` (centres unmarked) [Noribogaine, Noribogaine hydrochloride], the “Brain Concentration (total)” value (1 h) is reported as 11.3 µmol/L and 11.04 µmol/L, the “Free Brain Concentration” value (1 h) is reported as 1.334 µmol/L and 1.303 µmol/L and the “Free Plasma Concentration” value (1 h) is reported as 1924 nM and 1899 nM. For the same molecule, the “Plasma Concentration (total)” value (1 h) was 3.97 µmol/L and 4.11 µmol/L, the “Brain Concentration (total)” value (2 h) was 4.77 µmol/L and 6.38 µmol/L and the “Free Brain Concentration” value (2 h) was 0.563 µmol/L and 0.752 µmol/L. The “Free Plasma Concentration” value (2 h) was 1638 nM and 938 nM, the “Plasma Concentration (total)” value (2 h) was 1.96 µmol/L and 2.67 µmol/L and the “Brain Concentration (total)” value (4 h) was 2.93 µmol/L and 1.78 µmol/L and 5.54 µmol/L. For the same molecule, the “Free Brain Concentration” value (4 h) was 0.346 µmol/L and 0.211 µmol/L and 0.654 µmol/L, the “Free Plasma Concentration” value (4 h) was 1067 nM and 684 nM and 289 nM and the “Plasma Concentration (total)” value (4 h) was 1.43 µmol/L and 0.61 µmol/L and 2.23 µmol/L. For the same molecule, the “Brain Concentration (total)” value (8 h) was 0.81 µmol/L and 0.72 µmol/L and 0.21 µmol/L, the “Free Brain Concentration” value (8 h) was 0.095 µmol/L and 0.085 µmol/L and 0.024 µmol/L and the “Free Plasma Concentration” value (8 h) was 47 nM and 125 nM and 114 nM. The “Plasma Concentration (total)” value (8 h) was 0.26 µmol/L and 0.24 µmol/L and 0.1 µmol/L, the “Brain Concentration (total)” value (24 h) was 0.03 µmol/L and 0 µmol/L (2×) and the “Free Brain Concentration” value (24 h) was 0.004 µmol/L and 0 µmol/L (2×). The “Free Plasma Concentration” value (24 h) was 2 nM and 4 nM and 0 nM, the “Plasma Concentration (total)” value (24 h) was 0.01 µmol/L and 0 µmol/L (2×) and the Total concentration (Brain) was 17.18 µmol/L. For the same molecule, the CLf (Brain, single s.c. 10 mg/kg) was 13.76 mL/min/kg, the T1/2 (Brain, single s.c. 10 mg/kg) was 1.71 h and the Total concentration (Plasma) was 6.68 µmol/L. It also gave a CLf (Plasma, single s.c. 10 mg/kg) of 31.87 mL/min/kg, a T1/2 (Plasma, single s.c. 10 mg/kg) of 2.76 h and a CLf (brain, s.c. 10 mg/kg) of 13.76 mL/min/kg. The concentration at 0.083 h [1] was 6750 nM, the concentration at 0.083 h [2] was 797 nM and the concentration at 0.25 h [1] was 8040 nM. For the same molecule, the concentration at 0.25 h [2] was 949 nM, the concentration at 0.5 h [1] was 14600 nM and the concentration at 0.5 h [2] was 1720 nM. For the same molecule, the concentration at 1 h (brain, 1 h, read-out: Brain Concentration (total)) was 11700 nM, the concentration at 1 h (brain, 1 h, read-out: Free Brain Concentration) was 1380 nM and the concentration at 2 h (brain, 2 h, read-out: Brain Concentration (total)) was 7820 nM. The concentration at 2 h (brain, 2 h, read-out: Free Brain Concentration) was 923 nM, the Cmax (brain, Brain (brain conc. as ng/g), single s.c. 10 mg/kg) was 5090 ng/mL and the AUC(0-inf) (brain, s.c. 10 mg/kg) was 12100 ng·h/mL. It also gave an AUC(0-t) (brain, s.c. 10 mg/kg) of 11700 ng·h/mL, a Cmax (brain, s.c. 10 mg/kg) of 5090 ng/g and an AUC(0-inf) (brain, single s.c. 10 mg/kg) of 12100 ng·h/mL. The AUC(0-t) (brain, single s.c. 10 mg/kg) was 11700 ng·h/mL and 39.4 µM·h, the Cmax (brain, single s.c. 10 mg/kg) was 17200 nM and the concentration at 0.25 h [3] was 2910 nM. For the same molecule, the concentration at 0.25 h [4] was 4840 nM, the concentration at 0.5 h [3] was 3340 nM and the concentration at 0.5 h [4] was 5360 nM. It also gave a concentration at 1 h (plasma, 1 h, read-out: Free Plasma Concentration) of 1960 nM, a concentration at 1 h (plasma, 1 h, read-out: Plasma Concentration (total)) of 4030 nM and a concentration at 2 h (plasma, 2 h, read-out: Free Plasma Concentration) of 1280 nM. The concentration at 2 h (plasma, 2 h, read-out: Plasma Concentration (total)) was 3430 nM, the AUC(0-inf) (plasma, s.c. 10 mg/kg) was 5230 ng·h/mL and the AUC(0-t) (plasma, s.c. 10 mg/kg) was 5220 ng·h/mL. For the same molecule, the Cmax (plasma, s.c. 10 mg/kg) was 1980 ng/mL, the AUC(0-inf) (plasma, single s.c. 10 mg/kg) was 5230 ng·h/mL and the AUC(0-t) (plasma, single s.c. 10 mg/kg) was 5220 ng·h/mL and 17.6 µM·h. The Cmax (plasma, single s.c. 10 mg/kg) was 1980 ng/mL and 6.68 µM, the Tmax (brain, s.c. 10 mg/kg) was 0.5 h and the half-life (brain, s.c. 10 mg/kg) was 1.71 h. The Vd/F (brain, s.c. 10 mg/kg) was 2.04 L/kg, the Tmax (plasma, s.c. 10 mg/kg) was 0.5 h and the half-life (plasma, s.c. 10 mg/kg) was 2.76 h. It also gave a Vd/F (plasma, s.c. 10 mg/kg) of 7.62 L/kg and a CLf (plasma, s.c. 10 mg/kg) of 31.87 mL/min/kg.
